{
  "source": "paper PMC4661110",
  "about": "(Bioorganic & medicinal chemistry, 2015)",
  "key": {"S. aureus Mu50 [1]": {"system": "S. aureus Mu50", "assay": "Bacteriostatic effect", "type": "cell-based", "conditions": "for MIC fold higher than that of SCA-50: S. aureus Mu50"}, "[2]": {"system": "S. aureus NorA and MepA efflux pump strains", "type": "cell-based", "conditions": "confirmed by MIC, Table 3"}, "SaSecA1 [3]": {"target": "T1, SaSecA1 (Staphylococcus aureus, UniProt O06446)", "T1 sequence (O06446 1-843)": "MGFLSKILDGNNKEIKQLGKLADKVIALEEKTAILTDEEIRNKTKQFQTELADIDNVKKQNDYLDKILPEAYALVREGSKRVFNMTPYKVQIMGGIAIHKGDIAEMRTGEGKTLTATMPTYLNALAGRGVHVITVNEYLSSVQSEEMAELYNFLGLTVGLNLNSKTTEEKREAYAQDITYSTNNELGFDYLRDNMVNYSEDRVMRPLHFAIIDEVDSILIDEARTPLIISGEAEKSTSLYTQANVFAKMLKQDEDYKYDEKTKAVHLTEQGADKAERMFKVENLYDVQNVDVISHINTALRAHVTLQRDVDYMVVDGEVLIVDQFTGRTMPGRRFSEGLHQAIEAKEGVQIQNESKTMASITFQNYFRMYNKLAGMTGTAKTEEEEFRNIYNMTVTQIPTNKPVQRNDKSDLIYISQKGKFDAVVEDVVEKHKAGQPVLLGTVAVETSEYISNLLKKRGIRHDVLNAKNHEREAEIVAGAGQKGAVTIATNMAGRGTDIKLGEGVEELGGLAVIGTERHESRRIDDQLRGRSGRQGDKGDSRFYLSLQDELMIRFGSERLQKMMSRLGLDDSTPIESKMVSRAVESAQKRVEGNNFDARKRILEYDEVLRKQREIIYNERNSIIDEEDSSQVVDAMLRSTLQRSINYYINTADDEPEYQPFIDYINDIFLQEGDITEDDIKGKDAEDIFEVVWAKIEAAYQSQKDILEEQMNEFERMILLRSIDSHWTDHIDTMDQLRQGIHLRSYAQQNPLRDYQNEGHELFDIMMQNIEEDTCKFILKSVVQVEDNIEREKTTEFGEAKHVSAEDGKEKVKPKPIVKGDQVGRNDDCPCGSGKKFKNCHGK", "type": "biochemical", "conditions": "liposomes-oocytes, different concentrations of ATP"}, "S. aureus Mu50 [4]": {"system": "S. aureus Mu50", "type": "cell-based", "conditions": "10 µM, mid-log phase (OD600 ≈ 2.6), first 15 hr"}, "S. aureus ATCC 6538": {"system": "S. aureus ATCC 6538", "assay": "Effects of light on bactericidal result", "type": "cell-based", "conditions": "40 µM, 2 hr, dark vs light"}, "[5]": {"system": "secretion of α-hemolysin, enterotoxin B, and TSST-1 by S. aureus Mu50", "type": "cell-based"}, "SaSecA1 [6]": {"target": "T1, SaSecA1", "assay": "Protein pull down assay from whole cell lysate", "type": "binding", "conditions": "400 µM, S. aureus ATCC 6538 lysate, Streptavidin magnetic beads, Western blot"}},
  "data": [
    {"molecule": "CC1(C)S[C@@H]2[C@H](NC(=O)[C@H](N)c3ccccc3)C(=O)N2[C@H]1C(=O)O", "note": "[Ampicillin]", "values": [
      {"measurement": "MIC fold higher than that of SCA-50", "setting": "S. aureus Mu50 [1]", "value": 250, "unit": "fold"}
    ]},
    {"molecule": "CC[C@H]1OC(=O)[C@H](C)[C@@H](O[C@H]2C[C@@](C)(OC)[C@@H](O)[C@H](C)O2)[C@H](C)[C@@H](O[C@@H]2O[C@H](C)C[C@H](N(C)C)[C@H]2O)[C@](C)(O)C[C@@H](C)C(=O)[C@H](C)[C@@H](O)[C@]1(C)O", "note": "[Erythromycin]", "values": [
      {"measurement": "MIC fold higher than that of SCA-50", "setting": "S. aureus Mu50 [1]", "value": 250, "unit": "fold"}
    ]},
    {"molecule": "NC[C@H]1O[C@H](O[C@H]2[C@H](O)[C@@H](O[C@H]3O[C@H](CO)[C@@H](O)[C@H](N)[C@H]3O)[C@H](N)C[C@@H]2N)[C@H](O)[C@@H](O)[C@@H]1O", "note": "[Kanamycin]", "values": [
      {"measurement": "MIC fold higher than that of SCA-50", "setting": "S. aureus Mu50 [1]", "value": 250, "unit": "fold"}
    ]},
    {"molecule": "O=C([O-])c1c(Cl)c(Cl)c(Cl)c(Cl)c1-c1c2cc(I)c(=O)c(I)c-2oc2c(I)c([O-])c(I)cc12.[Na+].[Na+]", "note": "[RB, Rose Bengal]", "values": [
      {"measurement": "substrate of NorA efflux pump", "setting": "[2]", "value": "substrate of NorA"}
    ]},
    {"molecule": "CO[C@H]1/C=C/O[C@@]2(C)Oc3c(C)c(O)c4c(O)c(c(/C=N/N5CCN(C)CC5)c(O)c4c3C2=O)NC(=O)/C(C)=C\\C=C\\[C@H](C)[C@H](O)[C@@H](C)[C@@H](O)[C@@H](C)[C@H](OC(C)=O)[C@@H]1C", "note": "[Rifampicin]", "values": [
      {"measurement": "MIC fold higher than that of SCA-50", "setting": "S. aureus Mu50 [1]", "value": 250, "unit": "fold"}
    ]},
    {"molecule": "CCCCCCC1c2ccc(O)cc2Oc2cc(O)ccc21", "note": "[SCA-50]", "values": [
      {"measurement": "manner of inhibition of translocation related ATPase activity of SaSecA1", "setting": "SaSecA1 [3]", "value": "non-competitive"},
      {"measurement": "OD600 reading compared with control", "setting": "S. aureus Mu50 [4]", "value": "didn’t obviously change"},
      {"measurement": "effect of light on bactericidal effects", "setting": "S. aureus ATCC 6538", "value": "not obviously affected by light"},
      {"measurement": "MIC", "setting": "S. aureus Mu50 [1]; Staphylococcus aureus, MU50, read-out: MIC against S. aureus Mu50", "value": 12.5, "unit": "µM"},
      {"measurement": "amount of TSST-1 in the supernatant", "setting": "[5]", "value": "significantly decreased"},
      {"measurement": "amount of enterotoxin B in the supernatant", "setting": "[5]", "value": "significantly decreased"},
      {"measurement": "amount of α-hemolysin in the supernatant", "setting": "[5]", "value": "significantly decreased"},
      {"measurement": "amount of extracellular proteins in the supernatant", "setting": "[5]; 10 µM", "value": "reduced the amount of many extracellular proteins"}
    ]},
    {"molecule": "O=C(CCCC[C@@H]1SC[C@@H]2NC(=O)N[C@@H]21)NCCCCCCC1c2ccc(O)cc2Oc2cc(O)ccc21", "note": "[SCA-254]", "values": [
      {"measurement": "pull down of SaSecA1 from whole cell lysates", "setting": "SaSecA1 [6]", "value": "could recognize and pull down SaSecA1"}
    ]},
    {"molecule": "CN[C@@H](CC(C)C)C(=O)N[C@H]1C(=O)N[C@@H](CC(N)=O)C(=O)N[C@H]2C(=O)N[C@H]3C(=O)N[C@H](C(=O)N[C@@H](C(=O)O)c4cc(O)cc(O)c4-c4cc3ccc4O)[C@H](O)c3ccc(c(Cl)c3)Oc3cc2cc(c3O[C@H]2O[C@@H](CO)[C@H](O)[C@@H](O)[C@@H]2O[C@@H]2C[C@@](C)(N)[C@@H](O)[C@@H](C)O2)Oc2ccc(cc2Cl)[C@H]1O", "note": "[Vancomycin]", "values": [
      {"measurement": "MIC fold higher than that of SCA-50", "setting": "S. aureus Mu50 [1]", "value": "two-fold higher"}
    ]},
    {"molecule": "polymyxin B [Polymxin B]", "values": [
      {"measurement": "Bacteriostatic effect MIC, S. aureus Mu50 (comparison with antibiotics)", "setting": "S. aureus Mu50 [1]; Table 2, n = 6", "value": 31, "unit": "µg/mL"}
    ]}
  ]
}
